This passage reports inhibition results from ChEMBL document CHEMBL4402562, “Discovery of Novel Peptidomimetic Boronate ClpP Inhibitors with Noncanonical Enzyme Mechanism as Potent Virulence Blockers in Vitro and in Vivo” (J Med Chem, 2020).

The test system of this experiment is Staphylococcus aureus. The experiment in a line: Inhibition of Hla expression in methicillin-resistant Staphylococcus aureus ATCC 33591 at 16 uM by Western blot analysis. In kind it is functional, organism-based.

Each structure is given as a SMILES string. Activity calls are given as the source filed them. The calls are words filed in the database; no cut-off is given here.

For the compound `CC(C)C[C@H](NC(=O)[C@H](Cc1c[nH]c2ccccc12)NC(=O)c1cc(Cl)ccc1Cl)B(O)O`, the inhibition entry was “Active”.
